# Results reported in patent US20230021957A1, “USE OF PSILOCIN, […] ANALOGS THEREOF IN WEIGHT LOSS, TREATMENT OF OBESITY AND COMPULSIVE EATING DISORDER” (NEONMIND BIOSCIENCES INC., priority 2019, published 2023).
# Key:
# [1] = Weight loss in obese males, gel tabs on weekdays for 2 months; assay type: in vivo, human; conditions: 2.5 mg gel tab every morning on weekdays
# Experimental: 12 males all weighing between 250 and 275 lbs and all having BMI indexes between 30 and 35 kg/m^2 are split into two groups. The first is provided with placebo gel tabs; the second with indistinguishable gel tabs containing 2.5 mg of purified synthetically produced psilocin in a pharmaceutically acceptable carrier. Both groups are instructed to take one gel tab every morning, before breakfast, on weekdays, with weekends off, for 2 months. At the end of the two months, the first (placebo) group is found to have a similar weight as before the treatment, whereas the treatment group loses an average of 12 lbs each.
# [2] = Weight gain of rats on a high calorie diet, once daily psilocybin for five days; assay type: in vivo, Sprague-Dawley rats; conditions: for total weight gain over the 5 day period: control 27.8
# Experimental: In order to determine whether psilocybin has anorectic—and therefore weight loss—properties, a preclinical study of the drug was conducted, using a well-validated animal model. Rodent models of food consumption and weight gain have a strong homology with humans, as rodents are omnivores with a very similar metabolic physiology. […] The goal of the present study was to cause accelerated weight gain with a high calorie diet, consisting of a highly palatable food with a large proportion of fat and carbohydrate, compared to standard animal food, which is designed to maintain a healthy weight. We evaluated whether treatment with two different doses of psilocybin could reduce the accelerated weight gain caused by this diet.
# Adult, male Sprague-Dawley rats were purchased from the animal supplier, and then housed in pairs in polycarbonate cages, with access to water and standard rat food ad libitum. Rats were given a period of time to acclimate to the animal colony. They were then all given unlimited access to a highly palatable diet that is very high in carbohydrate and fat (consisting predominantly of a hazelnut-flavored chocolate spread combined with peanut butter) that has been used routinely in multiple published studies with rats to study rapid weight gain (Hansen et al., Acta pharmacologica Sinica. 2012; 33(2):194-200). Animals were randomly assigned to one of three treatment groups, which consisted of once daily administration of either a lower dose (5 mg/kg; n=7 animals) of psilocybin, a higher dose (20 mg/kg; n=7 animals) of psilocybin, or no psilocybin (n=12 animals). The psilocybin was supplied by the Katz Group at the University of Alberta, and was legally approved by an exemption from Health Canada.
# Rats were administered the drug approximately two hours before the lights went off in the animal colony, which is when feeding typically commences. Animals were free to consume as much of the regular rat food or high calorie diet as they wished. They were weighed each day prior to drug treatment, to determine how much weight had been gained in the previous 24 hours. The study administered the drug over five consecutive days. Data were statistically analyzed by (SPSS Version 24 software package) using a one-way Analysis of Variance (ANOVA) with a LSD-post hoc test to detect between-group differences.
# [3] = tested on: compulsive eating disorder; test: Self-reported instances of compulsive eating over two months; conditions: once a day with breakfast for two months; compared to first two months without treatment
SMILES,fasting glucose levels [1],insulin resistance [1],levels of hypertension [1],lipid count in the blood stream [1],"average weight loss ([1]; males 250-275 lbs, BMI 30-35) [lbs]","reduction in weight gain vs control ([2]; 5 mg/kg once daily, 5 days) [%]",total weight gain over the 5 day period ([2]; 5 mg/kg once daily) [grams],"cumulative weight gain, day-by-day comparison with controls ([2]; 20 mg/kg)","relative weight gain, day-by-day comparison with controls ([2]; 20 mg/kg)","reduction in weight gain vs control ([2]; 20 mg/kg once daily, 5 days) [%]",total weight gain over the 5 day period ([2]; 20 mg/kg once daily) [grams],decrease of weight gain (summary) ([2]; both doses of psilocybin),"total relative weight gain (relative to baseline weight) ([2]; both psilocybin groups (5 and 20 mg/kg), 5 days, controls 8.4%) [%]","decrease in relative weight gain vs controls ([2]; both psilocybin groups (5 and 20 mg/kg), 5 days, p=0.01) [%]","relative weight gain, day-by-day comparison with controls ([2]; both psilocybin groups (5 and 20 mg/kg), p<0.05)","weight gain per day ([2]; both psilocybin-treated groups (5 and 20 mg/kg once daily), control 5-8)","cumulative weight gain, day-by-day comparison with controls ([2]; both psilocybin-treated groups (5 and 20 mg/kg))",self-reported instances of compulsive eating [3]
"CN(C)CCc1c[nH]c2cccc(O)c12 [psilocin, 4-hydroxy-N,N-dimethyltryptamine]",lower fasting glucose levels,decreased insulin resistance,lower levels of hypertension,lower lipid count in the blood stream,12,–,–,–,–,–,–,–,–,–,–,–,–,–
CN(C)CCc1c[nH]c2cccc(OP(=O)(O)O)c12 [psilocybin],–,–,–,–,–,31,19.4,significantly reduced weight gain compared to controls by Day 3,gained statistically less relative weight by day 3,28,20.1,approximately one third,5.7,32,gained less relative weight by day 4,1-8 grams per day,significantly decreased weight gain compared to controls,decrease in compulsive eating
